# Measurements: patent US20230117155A1, “FRACTION EXTRACT OF MELISSA OFFICINALIS LEAVES AND NOVEL PHARMACEUTICAL COMPOSITION INCLUDING SAME” (priority 2020, published 2023)
# Entries after “also recorded” stand apart in the source; their conditions may differ.
# System: HUVECs (human umbilical vein endothelial cells)
# Assay: HUVEC tube formation, angiogenesis inhibitory activity assay
# Assay type: cell-based
# Conditions: single ingredient, final concentration 50 μg/ml; FIG. 9
# Protocol: A 48-well plate was coated with 200 μl of 10% matrigel, and incubated at 4° C. After 4 hours the temperature was raised to 37° C., and 1 hour later, the test substances listed in Tables 2 and 3 below were added to a final concentration of 50 μg/ml, and then 5×10^4 HUVECs (human umbilical vein endothelial cells) were added to each well, and pictures were taken the next day.
row,Structure (SMILES),angiogenesis inhibitory activity in HUVEC tube formation assay
1,"COC(=O)[C@@H](Cc1ccc(O)c(O)c1)OC(=O)/C=C/c1ccc(O)c(O)c1 [RME, Rosmarinic acid methyl ester]",angiogenesis inhibitory activities
2,O=C(O)/C=C/c1ccc(O)c(O)c1 [caffeic acid],angiogenesis inhibitory activities
3,O=C(/C=C/c1ccc(O)c(O)c1)O[C@H](Cc1ccc(O)c(O)c1)C(=O)O [Rosmarinic acid],angiogenesis inhibitory activities
4,"CCOC(=O)Cc1ccc(O)c(O)c1 [EDPA, Ethyl 2-(3,4-dihydroxyphenyl) acetate]",angiogenesis inhibitory activities; also recorded: highest angiogenesis inhibitory activity
